Results from ChEMBL document CHEMBL5316315 (J Med Chem, 2023).
The source made the active and inactive calls. No cut-off for these calls is given here.

Key:
[1] = target: T1, N-terminal Xaa-Pro-Lys N-methyltransferase 1 (Homo sapiens, UniProt Q9BV86); experiment: Inhibition of N-terminal 6-his tagged TEV fused full length human NTMT1 (1 to 222 residues) expressed in Escherichia coli BL21-Codonplus(DE3)-RIL cells using GPKRIA peptide as substrate preincubated with compound for 10 mins followed by substrate addition and measured immediately by SAHH-coupled fluorescence analysis
T1 sequence (Q9BV86 whole entry): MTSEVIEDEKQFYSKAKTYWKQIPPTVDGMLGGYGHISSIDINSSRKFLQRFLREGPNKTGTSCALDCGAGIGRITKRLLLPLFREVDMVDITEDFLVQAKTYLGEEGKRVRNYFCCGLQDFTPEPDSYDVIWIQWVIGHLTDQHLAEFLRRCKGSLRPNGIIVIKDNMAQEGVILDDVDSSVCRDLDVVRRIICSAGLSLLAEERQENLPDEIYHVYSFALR

[2] = Dose normalized AUClast in CD-1 mouse at 25 mg/kg, po measured upto 24 hrs; format: ADME, organism-based; settings: in vivo
[3] = Toxicity in Balb/c mouse assessed as effect on response at 100 to 200 mg/kg, po administered as single dose for 2 weeks; format: organism-based; settings: in vivo, 336 h, dose 100-200 mg/kg
[4] = AUClast in CD-1 mouse at 25 mg/kg, po measured upto 24 hrs; format: ADME, organism-based; set-up: time < 24 hrs, dose 25 mg/kg, route po; settings: in vivo
[5] = Toxicity in Balb/c mouse assessed as effect on alert behaviour at 250 to 350 mg/kg, po administered as single dose for 2 weeks; format: organism-based; settings: in vivo, 336 h, dose 250-350 mg/kg
[6] = Toxicity in Balb/c mouse assessed as animal death at 400 mg/kg, po administered as single dose and measured 15 mins post administration; format: organism-based; settings: in vivo, 0.25 h
[7] = Toxicity in Balb/c mouse assessed as effect on response at 250 to 350 mg/kg, po administered as single dose for 2 weeks; format: organism-based; settings: in vivo, 336 h, dose 250-350 mg/kg
[8] = Drug concentration in CD-1 mouse plasma at 25 mg/kg, po measured after 4 hrs; format: ADME, organism-based
[9] = Toxicity in Balb/c mouse assessed as effect on body weight loss at 100 to 200 mg/kg, po administered as single dose for 2 weeks; format: organism-based; settings: in vivo, 336 h, dose 100-200 mg/kg
[10] = Half-life in CD-1 mouse at 25 mg/kg, po measured upto 24 hrs; format: ADME, organism-based; settings: in vivo
[11] = Tmax in CD-1 mouse at 25 mg/kg, po measured upto 24 hrs; format: ADME, organism-based; settings: in vivo
[12] = Toxicity in Balb/c mouse assessed as effect on bright behaviour at 250 to 350 mg/kg, po administered as single dose for 2 weeks; format: organism-based; settings: in vivo, 336 h, dose 250-350 mg/kg
[13] = Toxicity in Balb/c mouse assessed as effect on body weight loss at 250 to 350 mg/kg, po administered as single dose for 2 weeks; format: organism-based; settings: in vivo, 336 h, dose 250-350 mg/kg
[14] = target: T2, Ceramide glucosyltransferase (Homo sapiens) (UniProt Q16739); settings: HCT-116, dose 30.0 nM, time 52.0 hrs
T2 sequence (whole entry): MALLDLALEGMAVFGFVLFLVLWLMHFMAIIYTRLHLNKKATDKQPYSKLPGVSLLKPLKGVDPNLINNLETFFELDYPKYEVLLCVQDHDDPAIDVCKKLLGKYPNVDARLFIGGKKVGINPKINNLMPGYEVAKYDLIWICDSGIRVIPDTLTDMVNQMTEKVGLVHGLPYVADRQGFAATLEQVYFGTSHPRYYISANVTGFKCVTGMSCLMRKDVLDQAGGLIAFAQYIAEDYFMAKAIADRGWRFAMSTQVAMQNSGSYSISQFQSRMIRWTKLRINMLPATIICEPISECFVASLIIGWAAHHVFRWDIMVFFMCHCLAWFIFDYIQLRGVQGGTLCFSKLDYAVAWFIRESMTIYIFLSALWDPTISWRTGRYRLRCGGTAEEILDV

Compound | IC50 [1] [µM] | other results
CC(C)(NC(=O)O[C@@H]1CN2CCC1CC2)c1csc(-c2ccc(O)cc2)n1 | 25 | 
CC(C)(NC(=O)O[C@@H]1CN2CCC1CC2)c1csc(-c2cccc([N+](=O)[O-])c2)n1 | 64 | 
CC(C)(NC(=O)O[C@@H]1CN2CCC1CC2)c1csc(-c2ccccn2)n1 | 3.7 | 
CC(C)(NC(=O)O[C@@H]1CN2CCC1CC2)c1csc(I)n1 | 46 | 
CC(C)(NC(=O)O[C@@H]1CN2CCC1CC2)c1csc(-c2ccc(F)nc2)n1 | 1.5 | 
CC(C)(NC(=O)O[C@@H]1CN2CCC1CC2)c1csc(-c2cccc(O)c2)n1 | 0.56 | 
CC(C)(NC(=O)O[C@@H]1CN2CCC1CC2)c1csc(-c2ccoc2)n1 | 91 | 
CC(C)(NC(=O)O[C@@H]1CN2CCC1CC2)c1csc(-c2ccc(N)cc2)n1 | 7.5 | 
CN1CCC[C@H](OC(=O)NC(C)(C)c2csc(-c3ccc(F)cc3)n2)C1 | 25 | 
CC(C)(NC(=O)O[C@@H]1CN2CCC1CC2)c1csc(-c2ccccc2O)n1 | 4.6 | 
CC(C)(NC(=O)O[C@@H]1CN2CCC1CC2)c1csc(-c2cncnc2)n1 | > 100 | 
COc1ccc(-c2nc(C(C)(C)NC(=O)O[C@@H]3CN4CCC3CC4)cs2)cc1 | 54 | 
CC(C)(NC(=O)O[C@@H]1CN2CCC1CC2)c1csc(-c2cccc(N)c2)n1 | 7.6 | 
CC(C)(NC(=O)O[C@@H]1CN2CCC1CC2)c1csc(-c2ccc(F)c(O)c2)n1 |  | AUClast/dose [2]: 6.27 ng·h/mL; Activity [3]: Non-Toxic; AUC(0-t) at 24 h [4]: 157 ng·h/mL; Activity [5]: Non-Toxic; Activity [6]: Toxic; Activity [7]: Non-Toxic; concentration at 4 h [8]: > 18.8 ng/mL; Activity [9]: Non-Toxic; half-life [10]: 2.63 h; Tmax [11]: 0.25 h; Activity [12]: Non-Toxic; Activity [13]: Non-Toxic
CC(C)(NC(=O)O[C@@H]1CN2CCC1CC2)c1csc(-c2ccccc2N)n1 | 7.1 | 
CNc1nc(C(C)(C)NC(=O)O[C@@H]2CN3CCC2CC3)cs1 | 50 | 

Compound | IC50 [1] [µM] | other results
CC(C)(NC(=O)O[C@@H]1CN2CCC1CC2)c1csc(-c2ccco2)n1 | 21 | 
CC(C)(NC(=O)O[C@@H]1CN2CCC1CC2)c1csc(-c2cccc3ccccc23)n1 | 44 | 
CC(C)(NC(=O)Oc1cccnc1)c1csc(-c2ccc(F)cc2)n1 | > 100 | 
CC(C)(NC(=O)O[C@@H]1CN2CCC1CC2)c1csc(-c2ccsc2)n1 | 9.1 | 
CC(C)(C(=O)N[C@@H]1CN2CCC1CC2)c1csc(-c2ccc(F)cc2)n1 | > 100 | 
CC(C)(NC(=O)O[C@@H]1CN2CCC1CC2)c1csc(-c2ccc(F)cc2O)n1 | 0.3 | 
CC(C)(NC(=O)O[C@@H]1CN2CCC1CC2)c1csc(-c2ccc(C(=O)O)cc2)n1 | > 100 | 
CC(C)(NC(=O)O[C@@H]1CN2CCC1CC2)c1csc(-c2cccnc2)n1 | 2.8 | 
CC(C)c1nc(C(C)(C)NC(=O)O[C@@H]2CN3CCC2CC3)cs1 | > 100 | 
O=C(NCc1csc(-c2ccc(F)cc2)n1)O[C@@H]1CN2CCC1CC2 | > 100 | 
CC(C)(NC(=O)O[C@@H]1CN2CCC1CC2)c1csc(-c2cccs2)n1 | 2.4 | 
CC(C)(NC(=O)O[C@@H]1CN2CCC1CC2)c1csc(-c2ccc(F)cc2)n1 |  | inhibition [14]: Active
CCCN1CCC[C@H](OC(=O)NC(C)(C)c2csc(-c3ccc(F)cc3)n2)C1 | 18 | 
CC(C)(NC(=O)OCCN1CCCCC1)c1csc(-c2ccc(F)cc2)n1 | > 100 | 
CC(C)(NC(=O)N[C@@H]1CN2CCC1CC2)c1csc(-c2ccc(F)cc2)n1 | 40 | 
CC(C)(NC(=O)O[C@H]1CCCNC1)c1csc(-c2ccc(F)cc2)n1 | > 100 | 
